The values below come from publication PMC10606834, “Is the Neuropeptide PEN a Ligand of GPR83?” (International Journal of Molecular Sciences, 2023).

The test system of experiment [1] is GPR83 and deletion variant GPR83del (untagged or HA-tagged, U2OS clones). In words: Intracellular calcium mobilization, U2OS cells. Type of experiment: cell-based, human. The conditions noted are these: 10 µM PEN, controls co mix or 50 µM ionomycin, traces over 60 s, ligand added 10 s after start of recording, Fluo4-AM, duplicate, repeated at least two times. The protocol: As activation of many GPCRs is coupled to calcium mobilization from intracellular stores, GPR83 was probed for ligand-dependent calcium release. Wild-type HEK293 cells and HEK293 clones overexpressing either full-length GPR83 or the N-terminal deletion variant GPR83del were exposed to buffer or one of two independent synthesis batches (PEN #1 and PEN #2) of the neuropeptide PEN, while calcium indicator fluorescence was recorded. […] Calcium release was also tested in a second cell line, osteosarcoma U2OS cells, using various stably expressing clones. […] Therefore, HEK293 cells transfected with Gα16 were employed to investigate a potential GPR83-dependent calcium mobilization with PEN. […] A number of GPCRs show ligand-independent basal calcium activity. […]
Figure 2 Investigation of ligand-dependent and ligand-independent intracellular calcium mobilization. […] (B) Calcium indicator fluorescence intensity traces over 60 s of various U2OS cell clones overexpressing untagged or HA-tagged GPR83 or the deletion variant GPR83del before and after the addition of buffer or ligand (co mix as in (A) or 50 µM ionomycin or 10 µM PEN). […]
Cells were seeded at 50,000 cells/well in a poly-D-lysine coated 96-well black well/clear bottom plate (BD Falcon, Franklin Lakes, NJ, USA) and cultured overnight. […] Fluorescence data were generated in duplicate, and experiments were repeated at least two times.
(In general: Calcium flux is commonly read through the fluorescence of an indicator in the cells.)

The test system of experiment [2] is GPR83 and GPR83del, with or without HA tag (HEK293 cells; wild-type HEK293 as comparison). In words: Competitive radioligand binding assay, GPR83. Also noted: species or system human. From the text:
One of the most proven methods for quantitatively analyzing the interaction of biomolecules is the competitive radioligand binding assay. […] To safeguard against possible interference of the added Tyr with ligand–receptor binding, two peptides were created and are as follows: one with the Tyr on the aminoterminal end (Tyr-PEN), and the other with Tyr added on the carboxyterminus (PEN-Tyr). Radiolabeled ^125I-PEN-Tyr and ^125I-Tyr-PEN were then used on wild-type HEK293 cells and HEK293 cells expressing various forms of GPR83 (full-length or deletion variant, with or without HA tag) in competition with different concentrations of natural PEN or Tyr-PEN, ranging from 1 pM to 1 µM.
Figure 5 HEK293 wild-type cells and HEK293 cells overexpressing various forms of GPR83 were used in radioligand binding assays with two different radioactively labeled PEN peptides: [^125I]-Tyr-PEN or [^125I]-PEN-Tyr. (A) Radioligand [^125I]-PEN-Tyr in competition with unlabeled wild-type PEN. (B) Radioligand [^125I]-Tyr-PEN in competition with unlabeled wild-type PEN. (C) Radioligand [^125I]-PEN-Tyr in competition with unlabeled wild-type PEN. (D) Radioligand [^125I]-Tyr-PEN in competition with Tyr-PEN. […]
Two variants of human PENs were utilized for radioiodination in this study: one with a tyrosine added at the aminoterminal end (Tyr-PEN: […]-NH2), and one with an additional tyrosine attached to the carboxyterminal end (PEN-Tyr: […]-NH2). Both were labelled with ^125I using the chloramine-T method. Chloramine-T and sodium metabisulfite solutions were freshly prepared in water. For labelling, 10 µL of peptide (stock 1 mM) with 15 µL of sodium phosphate buffer (0.5 M, pH 7.6) was mixed with 37 MBq carrier-free Na^125I (NEZ033L010MC, Perkin Elmer, Waltham, MA, USA). A 4 μL volume of chloramine T (1 mg/mL) was added to start the reaction, and after 30 s, 4 μL sodium metabisulfite (2 mg/mL) was added to stop the iodination. The labeled radioactive peptide was separated from unlabeled peptide with HPLC purification (Agilent ZORBAX 300 Extend-C18 column) using a gradient from 20–50% acetonitrile (+0.1% TFA) against water (+0.1% TFA) for 20 min. To determine the retention time of the radioactive peptide, 1–2 µL of the reaction mixture was analyzed before the purification run. The fraction containing the radiolabeled peptide peak was then collected, diluted with binding buffer to prevent radioautolysis, aliquoted, and stored at −80 °C.
4.10. Radioligand Binding Assay
For competitive radioligand binding assay, approximately 50,000 cells/well were seeded in a 96-well plate incubated overnight at 37 °C. Next day, cells were incubated in binding buffer (50 mM HEPES pH 7.4, 5 mM MgCl2, 1 mM CaCl2, 0.5% BSA, cOmplete protease inhibitors) containing 100,000 counts per minute of ^125I-labelled peptide, with increasing concentrations of unlabeled peptide. After 2 h of incubation, cells were washed for 2–3 times with ice-cold washing buffer (50 mM Tris-HCl, pH 7.4, 125 mM NaCl, 0.05% BSA) and lysed with 1 N NaOH (80 µL/well). The lysed cells were transferred to vials and measured in a gamma counter (Wallac 1470 Wizard, Perkin Elmer, Waltham, MA, USA). Obtained cpm values were plotted with GraphPad Prism 7, and the data were fitted using nonlinear regression (one site—fit Ki, one site—fit logIC50).

On to “AADHDVGSELPPEGVLGALLRV [PEN, batch #1 synthesized, batch #2 purchased from Phoenix Pharmaceuticals]”, for which the “enhancement of calcium indicator fluorescence” value in experiment [1] is reported as “PEN did not”. In experiment [2] (unlabeled peptide 1 pM to 1 µM versus 125I-PEN-Tyr or 125I-Tyr-PEN, HEK293 wild-type and GPR83 / GPR83del with or without HA tag, pH 7.4, 2 h), the “concentration-dependent displacement of radioligand” value is given as “neither of these different assay conditions led to a PEN-GPR83 binding signal above background or a concentration-dependent displacement of the radioligand”. Also, the “interaction with GPR83 in radioligand binding assay” value in experiment [2] (up to four GPR83-overexpressing cell clones, two radiolabeled PEN variants, whole cells) was “no interaction could be detected between PEN and GPR83”.
